Results published in patent US9475822B2, “Substituted 2- amidoquinazol-4-ones as matrix metalloproteinase-13 inhibitors” (Takeda Pharmaceutical Company Limited, priority 2004, dated 2016).
Where two headings read alike, the source gives them in different places. One block for each compound: values may come before it.

Experiments:
MMP-13 = target: T1, MMP-13 (Homo sapiens, UniProt P45452); assay: MMP-13 inhibitory activity (fluorogenic peptide substrate enzyme assay); type: biochemical; details: substrate Cy3-PLGLK(Cy5Q)AR-NH2, 37° C., 40 min
T1 construct: purchased GenzymeTechne
Description: To 10 μg of MMP-13 precursor (GenzymeTechne) was added 1 ml of assay buffer (50 mM Tris-HCl (pH 7.5), 10 mM CaCl2, 150 mM NaCl, 0.05% Brij-35), and 4-aminophenylmercuric acid (Sigma) was added to the final concentration of 1 mM. The MMP-13 precursor was activated by incubating at 37° C. for 2 hrs.
In a 96 well black plate (Corning), to 6.3 ng/ml of MMP-13 solution (49 μl) diluted with assay buffer was added the test compound (1 μl) diluted with dimethyl sulfoxide (DMSO) and 620 nM Cy3-PLGLK(Cy5Q)AR—NH2 (50 μl, synthesized by Amersham Biosciences) in assay buffer was added to start the enzyme reaction. After incubation at 37° C. for 40 min, 500 mM EDTA solution (6 μl) was added to stop the reaction. For measurement, Farcyte (Amersham Biosciences) was used to measure at excitation wavelength 535 nm and measurement wavelength 595 nm.
T: value of well with addition of DMSO instead of test compound
C: value of well with addition of DMSO instead of test compound and addition of EDTA solution before addition of substrate solution
X: value of well with addition of test compound

[1] = compound 1 μM, read-out: MMP-13 activity inhibitory rate (%)
[2] = read-out: MMP-13 activity inhibitory rate (%), compound 1 μM

SMILES: COc1cccc(CNC(=O)c2nc3ccccc3c(=O)[nH]2)c1 [Example 1, N-{[3-(methyloxy)phenyl]methyl}-4-oxo-3,4-dihydroquinazoline-2-carboxamide]
- inhibition at 1 µM (MMP-13; [1]): 91%

SMILES: COc1cccc(CNC(=O)c2nc3ccc(Cl)cc3c(=O)[nH]2)c1 [Example 83, 6-chloro-N-{[3-(methyloxy)phenyl]methyl}-4-oxo-3,4-dihydroquinazoline-2-carboxamide]
- melting point: 203 to 206 °C

SMILES: COc1cccc(CNC(=O)c2nc3ccc(N)cc3c(=O)[nH]2)c1 [Example 100, 6-amino-N-{[3-(methyloxy)phenyl]methyl}-4-oxo-3,4-dihydroquinazoline-2-carboxamide]
- melting point: 223 to 225 °C

SMILES: COc1cccc(CNC(=O)c2nc3ccc(I)cc3c(=O)[nH]2)c1 [Example 104, 6-iodo-N-{[3-(methyloxy)phenyl]methyl}-4-oxo-3,4-dihydroquinazoline-2-carboxamide]
- melting point: 219 to 220 °C

SMILES: COc1cccc(CNC(=O)c2nc3ccc(CN4CCOCC4)cc3c(=O)[nH]2)c1 [Example 116, N-{[3-(methyloxy)phenyl]methyl}-6-(morpholin-4-ylmethyl)-4-oxo-3,4-dihydroquinazoline-2-carboxamide]
- melting point: 126 to 129 °C

SMILES: COc1cccc(CNC(=O)c2nc3ccc(F)c(OCCc4ccc(C(=O)O)cc4)c3c(=O)[nH]2)c1 [Example 179, 4-[2-({6-Fluoro-2-[({[3-(methyloxy)phenyl]methyl}amino)carbonyl]-4-oxo-3,4-dihydroquinazolin-5-yl}oxy)ethyl]benzoic acid]
- inhibition at 1 µM (MMP-13; [1]): 99%

SMILES: COc1cccc(CNC(=O)c2nc3sccc3c(=O)[nH]2)c1 [Example 209, N-{[3-(methyloxy)phenyl]methyl}-4-oxo-3,4-dihydrothieno[2,3-d]pyrimidine-2-carboxamide]
- inhibition at 1 µM (MMP-13; [1]): 94%

SMILES: COc1cccc(CNC(=O)c2nc3scc(COCc4ccc(C(=O)O)cc4)c3c(=O)[nH]2)c1 [Example 217, 4-{[({2-[({[3-(methyloxy)phenyl]methyl}amino)carbonyl]-4-oxo-3,4-dihydrothieno[2,3-d]pyrimidin-5-yl}methyl)oxy]methyl}benzoic acid]
- MMP-13 activity inhibitory rate (%) (MMP-13; compound 1 μM, 1 µM): 100%

SMILES: COc1cccc(CNC(=O)c2nc3cnn(CCCc4ccccc4)c3c(=O)[nH]2)c1 [Example 243, N-(3-methoxybenzyl)-7-oxo-1-(3-phenylpropyl)-6,7-dihydro-1H-pyrazolo[4,3-d]pyrimidine-5-carboxamide]
- melting point: 138 to 140 °C

SMILES: COc1cc(CNC(=O)c2nc3cnn(CCCc4ccccc4)c3c(=O)[nH]2)ccc1F [Example 244, N-(4-fluoro-3-methoxybenzyl)-7-oxo-1-(3-phenylpropyl)-6,7-dihydro-1H-pyrazolo[4,3-d]pyrimidine-5-carboxamide]
- melting point: 155 to 157 °C

SMILES: COc1cccc(CNC(=O)c2nc3ccc(F)c(OCCc4ccc(C(=O)O)cc4)c3c(=O)[nH]2)c1 [Example 286, Sodium 4-[2-({6-fluoro-2-[({[3-(methyloxy)phenyl]methyl}amino)carbonyl]-4-oxo-3,4-dihydroquinazolin-5-yl}oxy)ethyl]benzoate]
- inhibition at 1 µM (MMP-13; [2]): 97%

SMILES: COc1cccc(CNC(=O)c2nc3ccc(F)c(OCCc4ccc(C(=O)[O-])cc4)c3c(=O)[n-]2)c1.[Na+].[Na+] [Example 287, Disodium 4-[2-({6-fluoro-2-[({[3-(methyloxy)phenyl]methyl}amino)carbonyl]-4-oxo-4H-quinazolin-3-id-5-yl}oxy)ethyl]benzoate]
- MMP-13 activity inhibitory rate (%) (MMP-13; compound 1 μM): 98%

SMILES: COc1cccc(CNC(=O)c2nc3scc(COCc4ccc(C(=O)O)cc4)c3c(=O)[nH]2)c1 [Example 383, Sodium 4-{[({2-[({[3-(methyloxy)phenyl]methyl}amino)carbonyl]-4-oxo-3,4-dihydrothieno[2,3-d]pyrimidin-5-yl}methyl)oxy]methyl}benzoate]
- inhibition at 1 µM (MMP-13; [2]): 91%

SMILES: COc1cccc(CNC(=O)c2nc3scc(COCc4ccc(C(=O)[O-])cc4)c3c(=O)[n-]2)c1.[Na+].[Na+] [Example 384, Disodium 4-{[({2-[({[3-(methyloxy)phenyl]methyl}amino)carbonyl]-4-oxo-4H-thieno[2,3-d]pyrimidin-3-id-5-yl}methyl)oxy]methyl}benzoate]
- MMP-13 activity inhibitory rate (%) (MMP-13; compound 1 μM): 91%

SMILES: COc1cccc(CNC(=O)c2nc3scc(COCc4ccc(C(=O)[O-])cc4)c3c(=O)[nH]2)c1.[K+] [Example 385, Potassium 4-{[({2-[({[3-(methyloxy)phenyl]methyl}amino)carbonyl]-4-oxo-3,4-dihydrothieno[2,3-d]pyrimidin-5-yl}methyl)oxy]methyl}benzoate]
- MMP-13 activity inhibitory rate (%) (MMP-13; compound 1 μM): 96%

SMILES: COc1cccc(CNC(=O)c2nc3scc(COCc4ccc(C(=O)O)cc4)c3c(=O)[nH]2)c1 [Example 386, Dipotassium 4-{[({2-[({[3-(methyloxy)phenyl]methyl}amino)carbonyl]-4-oxo-4H-thieno[2,3-d]pyrimidin-3-id-5-yl}methyl)oxy]methyl}benzoate]
- MMP-13 activity inhibitory rate (%) (MMP-13; compound 1 μM, 1 µM): 94%

Further lines, results first:

- melting point: 230 to 231 °C
SMILES: COc1cccc(CNC(=O)c2nc3cnn(CCOc4ccc(C(=O)O)cc4)c3c(=O)[nH]2)c1 [Example 250, 4-[2-(5-{[(3-methoxybenzyl)amino]carbonyl}-7-oxo-6,7-dihydro-1H-pyrazolo[4,3-d]pyrimidin-1-yl)ethoxy]benzoic acid]

- melting point: 169 to 171 °C
SMILES: CCOC(=O)Cc1csc2nc(C(=O)NCc3cccc(OC)c3)[nH]c(=O)c12 [Example 251, ethyl (2-{[(3-methoxybenzyl)amino]carbonyl}-4-oxo-3,4-dihydrothieno[2,3-d]pyrimidin-5-yl)acetate]

- melting point: 175 to 178 °C
SMILES: CCOC(=O)Cc1ccc(OCc2csc3nc(C(=O)NCc4cccc(OC)c4)[nH]c(=O)c23)cc1 [Example 256, ethyl {4-[(2-{[(3-methoxybenzyl)amino]carbonyl}-4-oxo-3,4-dihydrothieno[2,3-d]pyrimidin-5-yl)methoxy]phenyl}acetate]

- melting point: 228 to 230 °C
SMILES: COc1cccc(CNC(=O)c2nc3scc(COc4ccc(CC(=O)O)cc4)c3c(=O)[nH]2)c1 [Example 257, {4-[(2-{[(3-methoxybenzyl)amino]carbonyl}-4-oxo-3,4-dihydrothieno[2,3-d]pyrimidin-5-yl)methoxy]phenyl}acetic acid]

- inhibition at 1 µM (MMP-13; [1]): 96%
SMILES: O=C(O)c1ccc(COCc2csc3nc(C(=O)NCc4ccc(F)c(Cl)c4)[nH]c(=O)c23)cc1 [Example 339, 4-[({[2-({[(3-chloro-4-fluorophenyl)methyl]amino}carbonyl)-4-oxo-3,4-dihydrothieno[2,3-d]pyrimidin-5-yl]methyl}oxy)methyl]benzoic acid]

- inhibition at 1 µM (MMP-13; [1]): 98%
SMILES: Cc1cc(CNC(=O)c2nc3scc(COCc4ccc(C(=O)O)cc4)c3c(=O)[nH]2)ccc1F [Example 341, 4-[({[2-({[(4-fluoro-3-methylphenyl)methyl]amino}carbonyl)-4-oxo-3,4-dihydrothieno[2,3-d]pyrimidin-5-yl]methyl}oxy)methyl]benzoic acid]

- inhibition at 1 µM (MMP-13; [1]): 93%
SMILES: CCOc1cccc(CNC(=O)c2nc3scc(COCc4ccc(C(=O)O)cc4)c3c(=O)[nH]2)c1 [Example 366, 4-{[({2-[({[3-(ethyloxy)phenyl]methyl}amino)carbonyl]-4-oxo-3,4-dihydrothieno[2,3-d]pyrimidin-5-yl}methyl)oxy]methyl}benzoic acid]
